Data as given in ChEMBL document CHEMBL5375952, “Discovery of Novel 8-Hydroxyquinoline Derivatives with Potent In Vitro and In Vivo Antifungal Activity” (J Med Chem, 2023).

Assays:
[1] = test system: Candida albicans; experiment: Antifungal activity against Candida albicans SC5314 assessed as fungal growth inhibition incubated for 48 hrs in presence of Cu2+ by broth microdilution method (reference value: […] ug/ml); type: functional
[2] = Toxicity in C57BL/6 mouse infected with Candida albicans SC5314 assessed as animal death at 2 mg/kg, ip measured after 7 days; type: organism-based; conditions: in vivo, 168 h, time 7 day
[3] = test system: Candida albicans; experiment: Synergistic antifungal activity against FLC-resistant Candida albicans 953 assessed as fungal growth inhibition incubated for 48 hrs in presence of FLC by broth microdilution method; type: functional
[4] = test system: Candida albicans; experiment: Inhibition of biofilm formation of Candida albicans SC5314 at 4 ug/ml incubated for 24 hrs by XTT assay relative to control; type: functional
[5] = test system: Candida albicans; experiment: Synergistic antifungal activity against FLC-resistant Candida albicans 540 assessed as MIC of FLC incubated for 48 hrs by broth microdilution method; type: functional
[6] = test system: Candida albicans; experiment: Synergistic antifungal activity against FLC-resistant Candida albicans 14 assessed as MIC of FLC incubated for 48 hrs by broth microdilution method; type: functional
[7] = test system: Candida albicans; experiment: Synergistic antifungal activity against FLC-resistant Candida albicans 8 assessed as fractional inhibitory concentration index incubated for 48 hrs in presence of FLC by broth microdilution method; type: functional
[8] = test system: Candida albicans; experiment: Synergistic antifungal activity against FLC-resistant Candida albicans 819 assessed as fractional inhibitory concentration index incubated for 48 hrs in presence of FLC by broth microdilution method; type: functional
[9] = test system: Candida albicans; experiment: Synergistic antifungal activity against FLC-resistant Candida albicans 12 assessed as fractional inhibitory concentration index incubated for 48 hrs in presence of FLC by broth microdilution method; type: functional
[10] = test system: Candida albicans; experiment: Synergistic antifungal activity against FLC-resistant Candida albicans 710554 assessed as fractional inhibitory concentration index incubated for 48 hrs in presence of FLC by broth microdilution method; type: functional
[11] = test system: Candida albicans; experiment: Synergistic antifungal activity against FLC-resistant Candida albicans 605141 assessed as fractional inhibitory concentration index incubated for 48 hrs in presence of FLC by broth microdilution method; type: functional
[12] = test system: Candida albicans; experiment: Synergistic antifungal activity against FLC-resistant Candida albicans 10 assessed as fungal growth inhibition incubated for 48 hrs in presence of FLC by broth microdilution method; type: functional
[13] = test system: Candida albicans; experiment: Synergistic antifungal activity against FLC-resistant Candida albicans 710419 assessed as fungal growth inhibition incubated for 48 hrs in presence of FLC by broth microdilution method; type: functional
[14] = test system: Candida albicans; experiment: Synergistic inhibition of biofilm formation of Candida albicans SC5314 at 2 ug/ml incubated for 24 hrs in presence of 0.0625 ug/ml of FLC by XTT assay relative to control; type: functional
[15] = test system: Candida albicans; experiment: Synergistic inhibition of biofilm formation of Candida albicans SC5314 at 0.5 ug/ml incubated for 24 hrs in presence of 1 ug/ml of FLC by XTT assay relative to control; type: functional
[16] = test system: Candida albicans; experiment: Synergistic antifungal activity against FLC-resistant Candida albicans 379 assessed as MIC of FLC incubated for 48 hrs by broth microdilution method; type: functional
[17] = test system: Candida albicans; experiment: Synergistic antifungal activity against FLC-resistant Candida albicans 11 assessed as fungal growth inhibition incubated for 48 hrs in presence of FLC by broth microdilution method; type: functional
[18] = test system: Candida albicans; experiment: Synergistic antifungal activity against FLC-resistant Candida albicans 646 assessed as fungal growth inhibition incubated for 48 hrs in presence of FLC by broth microdilution method; type: functional
[19] = test system: Candida albicans; experiment: Synergistic antifungal activity against FLC-resistant Candida albicans 395 assessed as fractional inhibitory concentration index incubated for 48 hrs in presence of FLC by broth microdilution method; type: functional
[20] = test system: Candida albicans; experiment: Synergistic antifungal activity against FLC-resistant Candida albicans 241 assessed as fungal growth inhibition incubated for 48 hrs in presence of FLC by broth microdilution method; type: functional
[21] = test system: Candida albicans; experiment: Synergistic antifungal activity against FLC-resistant Candida albicans 64548 assessed as fungal growth inhibition incubated for 48 hrs in presence of FLC by broth microdilution method; type: functional
[22] = test system: Candida albicans; experiment: Synergistic antifungal activity against FLC-resistant Candida albicans 710513 assessed as MIC of FLC incubated for 48 hrs by broth microdilution method; type: functional
[23] = test system: Candida albicans; experiment: Synergistic antifungal activity against FLC-resistant Candida albicans 241 assessed as MIC of FLC incubated for 48 hrs by broth microdilution method; type: functional
[24] = test system: Candida albicans; experiment: Synergistic antifungal activity against FLC-resistant Candida albicans 249 assessed as fungal growth inhibition incubated for 48 hrs in presence of FLC by broth microdilution method; type: functional
[25] = test system: Candida albicans; experiment: Synergistic antifungal activity against FLC-resistant Candida albicans 512681 assessed as fractional inhibitory concentration index incubated for 48 hrs in presence of FLC by broth microdilution method; type: functional
[26] = test system: Candida albicans; experiment: Synergistic antifungal activity against FLC-resistant Candida albicans 538 assessed as fungal growth inhibition incubated for 48 hrs in presence of FLC by broth microdilution method; type: functional
[27] = test system: Candida albicans; experiment: Synergistic antifungal activity against FLC-resistant Candida albicans 710452 assessed as MIC of FLC incubated for 48 hrs by broth microdilution method; type: functional
[28] = test system: Candida albicans; experiment: Synergistic antifungal activity against FLC-resistant Candida albicans 249 assessed as MIC of FLC incubated for 48 hrs by broth microdilution method; type: functional
[29] = test system: Candida albicans; experiment: Synergistic antifungal activity against FLC-resistant Candida albicans 12 assessed as MIC of FLC incubated for 48 hrs by broth microdilution method; type: functional
[30] = test system: Candida albicans; experiment: Synergistic antifungal activity against FLC-resistant Candida albicans 305 assessed as fungal growth inhibition incubated for 48 hrs in presence of FLC by broth microdilution method; type: functional
[31] = test system: Candida albicans; experiment: Synergistic antifungal activity against FLC-resistant Candida albicans 10 assessed as fractional inhibitory concentration index incubated for 48 hrs in presence of FLC by broth microdilution method; type: functional
[32] = test system: Candida albicans; experiment: Antifungal activity against Candida albicans SC5314 assessed as fungal growth inhibition incubated for 48 hrs in presence of Cu2+ by broth microdilution method (reference value: 0.0625 ug/ml); type: functional
[33] = MRT (0 to t) in Sprague-Dawley rat at 2 mg/kg, iv by LC-MS/MS analysis; type: ADME, organism-based; conditions: in vivo
[34] = test system: Candida albicans; experiment: Synergistic antifungal activity against FLC-resistant Candida albicans 710513 assessed as fungal growth inhibition incubated for 48 hrs in presence of FLC by broth microdilution method; type: functional
[35] = target: Voltage-gated inwardly rectifying potassium channel KCNH2 (Homo sapiens, UniProt Q12809); experiment: Inhibition of hERG measured for 120 secs by electrophysiological method; type: toxicity; conditions: 2 min, time 120 sec
[36] = test system: Candida albicans; experiment: Synergistic antifungal activity against FLC-resistant Candida albicans 379 assessed as fungal growth inhibition incubated for 48 hrs in presence of FLC by broth microdilution method; type: functional
[37] = test system: Candida albicans; experiment: Synergistic antifungal activity against FLC-resistant Candida albicans 1221 assessed as fractional inhibitory concentration index incubated for 48 hrs in presence of FLC by broth microdilution method; type: functional
[38] = test system: Candida albicans; experiment: Synergistic antifungal activity against FLC-resistant Candida albicans 5740 assessed as fungal growth inhibition incubated for 48 hrs in presence of FLC by broth microdilution method; type: functional
[39] = Tmax in Sprague-Dawley rat at 5 mg/kg, po by LC-MS/MS analysis; type: ADME, organism-based; conditions: in vivo
[40] = test system: Candida albicans; experiment: Inhibition of biofilm formation of Candida albicans SC5314 at 8 ug/ml incubated for 24 hrs by XTT assay relative to control; type: functional

Chain of Voltage-gated inwardly rectifying potassium channel KCNH2 (Q12809 whole entry): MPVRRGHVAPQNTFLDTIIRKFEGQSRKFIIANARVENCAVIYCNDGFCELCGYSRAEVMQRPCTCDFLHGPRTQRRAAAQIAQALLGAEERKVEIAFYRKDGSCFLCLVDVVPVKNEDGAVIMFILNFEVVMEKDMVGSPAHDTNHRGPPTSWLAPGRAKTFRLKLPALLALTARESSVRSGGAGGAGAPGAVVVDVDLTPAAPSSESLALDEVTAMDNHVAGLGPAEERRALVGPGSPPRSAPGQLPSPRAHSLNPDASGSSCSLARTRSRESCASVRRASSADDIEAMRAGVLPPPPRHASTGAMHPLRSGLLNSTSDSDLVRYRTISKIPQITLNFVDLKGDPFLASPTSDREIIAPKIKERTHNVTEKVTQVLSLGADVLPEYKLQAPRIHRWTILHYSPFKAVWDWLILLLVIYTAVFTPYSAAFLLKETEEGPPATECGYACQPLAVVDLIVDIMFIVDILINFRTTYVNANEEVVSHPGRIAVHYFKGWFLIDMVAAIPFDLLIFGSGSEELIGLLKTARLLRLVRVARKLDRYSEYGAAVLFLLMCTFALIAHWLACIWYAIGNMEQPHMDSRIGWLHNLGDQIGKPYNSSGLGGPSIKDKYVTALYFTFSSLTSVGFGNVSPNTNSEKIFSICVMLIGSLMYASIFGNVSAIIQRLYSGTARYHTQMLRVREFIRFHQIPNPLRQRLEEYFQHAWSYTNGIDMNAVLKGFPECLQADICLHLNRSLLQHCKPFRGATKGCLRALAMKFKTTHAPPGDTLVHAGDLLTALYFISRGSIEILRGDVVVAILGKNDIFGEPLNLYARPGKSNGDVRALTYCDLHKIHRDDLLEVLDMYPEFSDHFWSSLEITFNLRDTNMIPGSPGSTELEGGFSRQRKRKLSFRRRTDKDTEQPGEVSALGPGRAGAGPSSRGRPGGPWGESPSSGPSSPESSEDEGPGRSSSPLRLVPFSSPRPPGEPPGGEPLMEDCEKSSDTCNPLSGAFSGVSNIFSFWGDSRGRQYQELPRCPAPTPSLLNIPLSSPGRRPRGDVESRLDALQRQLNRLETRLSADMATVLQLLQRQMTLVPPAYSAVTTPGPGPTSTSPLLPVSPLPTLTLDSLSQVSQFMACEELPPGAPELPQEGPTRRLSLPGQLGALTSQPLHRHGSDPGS

Question: For `Oc1c(I)cc(Cl)c2cccnc12` [CLIOQUINOL], which MIC [1] is on record?
Answer: Its MIC is 128 µg/mL.

Question: What about the Activity [2] of the same compound?
Answer: Its Activity is “Non-Toxic”.

Question: What does the source list for `CCN(CC)c1ccc(C(NC(=O)C(C)C)c2ccc3cccnc3c2O)cc1` (stereo not given)?
Answer: MIC [3]: 0.016 µg/mL; inhibition at 4 µg/mL [4]: 7.44%; MIC [5]: 0.25 µg/mL; MIC [6]: 0.25 µg/mL; fractional inhibitory concentration index (FICI) [7]: 0.252; fractional inhibitory concentration index (FICI) [8]: 0.133; fractional inhibitory concentration index (FICI) [9]: 0.062; fractional inhibitory concentration index (FICI) [10]: 0.066; fractional inhibitory concentration index (FICI) [11]: 0.063; MIC [12]: 0.008 µg/mL; MIC [13]: 0.031 µg/mL; inhibition at 2 µg/mL [14]: 15.6%; inhibition at 0.5 µg/mL [15]: 48.7%; MIC [16]: 1 µg/mL; MIC [17]: 0.008 µg/mL; MIC [18]: 0.016 µg/mL; fractional inhibitory concentration index (FICI) [19]: 0.133; MIC [20]: 0.016 µg/mL; MIC [21]: 0.031 µg/mL; MIC [22]: 1 µg/mL; MIC [23]: 1 µg/mL; MIC [24]: 0.008 µg/mL; fractional inhibitory concentration index (FICI) [25]: 0.127; MIC [26]: 0.008 µg/mL; MIC [27]: 0.25 µg/mL; MIC [28]: 0.125 µg/mL; MIC [29]: 1 µg/mL; MIC [30]: 0.016 µg/mL; fractional inhibitory concentration index (FICI) [31]: 0.07; MIC [32]: 128 µg/mL; MRT last [33]: 2.05 h; MIC [34]: 0.016 µg/mL; INH [35]: > 50 µM; MIC [36]: 0.008 µg/mL; fractional inhibitory concentration index (FICI) [37]: 0.126; MIC [38]: 0.016 µg/mL; Tmax [39]: 0.25 h; inhibition at 8 µg/mL [40]: 16.5%
